# Test results from patent US4496584A, “Amidine derivatives with anti-complement activity” (Torii & Co. Ltd., priority 1981, dated 1985).
# “And” between values parts separate entries of the source, which are not always exact repeats. Equal values may be shown once. Read-outs that look alike come from different tables or passages of the source.
# Experiments:
# trypsin = target: T1, trypsin (Bos taurus, UniProt P00760); assay: Enzyme inhibition, TAME hydrolysis, trypsin (method of Muramatsu et al.); assay type: biochemical; details: read-out: percentage inhibition, trypsin (figure in parentheses)
# T1 sequence (P00760 24-246): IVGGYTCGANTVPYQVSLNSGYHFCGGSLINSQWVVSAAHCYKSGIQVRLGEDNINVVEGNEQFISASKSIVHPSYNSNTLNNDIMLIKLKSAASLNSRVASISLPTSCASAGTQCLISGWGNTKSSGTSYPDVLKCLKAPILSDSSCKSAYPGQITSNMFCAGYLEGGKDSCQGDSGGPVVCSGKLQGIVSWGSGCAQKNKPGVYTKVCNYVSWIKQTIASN
# Experimental: (§1) The enzyme inhibitory activity was determined according to the method of Muramatsu et al. [M. Muramatsu, T. Onishi, S. Makino, Y. Hayashi and S. Fujii, J. Biochem., 58, 214 (1965)]. The data summarized in Table 1 are expressed in terms of molar concentration (ID50) of the test compound which inhibits 50% of the activity of each enzyme to hydrolyze TAME (tosylarginine methyl ester).
# plasmin = plasmin (Homo sapiens, UniProt P00747); assay: Enzyme inhibition, TAME hydrolysis, plasmin (method of Muramatsu et al.); assay type: biochemical; details: read-out: ID50, plasmin
# plasmin, sequence (P00747 581-810 limits assumed): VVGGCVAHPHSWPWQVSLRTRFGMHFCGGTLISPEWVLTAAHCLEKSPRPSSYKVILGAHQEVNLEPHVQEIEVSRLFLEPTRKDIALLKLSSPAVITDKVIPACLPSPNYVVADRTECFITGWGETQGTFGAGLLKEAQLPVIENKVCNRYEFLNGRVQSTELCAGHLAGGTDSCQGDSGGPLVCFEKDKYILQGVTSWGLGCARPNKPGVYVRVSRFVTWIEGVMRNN
# plasmin, sequence (P00747 97-580 partner limits assumed): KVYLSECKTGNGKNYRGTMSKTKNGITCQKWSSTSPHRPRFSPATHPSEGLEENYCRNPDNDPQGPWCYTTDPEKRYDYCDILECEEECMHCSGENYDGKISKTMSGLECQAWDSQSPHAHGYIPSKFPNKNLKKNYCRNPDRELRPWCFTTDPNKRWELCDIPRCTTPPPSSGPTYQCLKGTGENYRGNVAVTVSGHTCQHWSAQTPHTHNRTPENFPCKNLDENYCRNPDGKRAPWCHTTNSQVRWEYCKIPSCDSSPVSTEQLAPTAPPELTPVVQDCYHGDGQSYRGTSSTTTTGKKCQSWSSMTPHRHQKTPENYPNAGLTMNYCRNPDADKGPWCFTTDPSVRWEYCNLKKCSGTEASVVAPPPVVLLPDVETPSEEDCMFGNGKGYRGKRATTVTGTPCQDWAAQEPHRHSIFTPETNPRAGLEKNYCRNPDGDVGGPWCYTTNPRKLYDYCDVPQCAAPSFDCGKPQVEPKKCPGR
# Experimental: as §1
# kallikrein = assay: Enzyme inhibition, TAME hydrolysis, kallikrein (method of Muramatsu et al.); assay type: biochemical; details: 1×10^-5 M
# Experimental: as §1
# thrombin = thrombin (Bos taurus, UniProt P00735); assay: Enzyme inhibition, TAME hydrolysis, thrombin (method of Muramatsu et al.); assay type: biochemical
# Experimental: as §1
# Clr = target: T2, Clr (Homo sapiens, UniProt P00736); assay: Anti-Cl esterase activity, Clr (AAME hydrolysis, method of Okamura et al.); assay type: biochemical; details: read-out: Anti-C1 activity, Clr (ID50)
# T2 sequence (P00736 464-705 limits assumed): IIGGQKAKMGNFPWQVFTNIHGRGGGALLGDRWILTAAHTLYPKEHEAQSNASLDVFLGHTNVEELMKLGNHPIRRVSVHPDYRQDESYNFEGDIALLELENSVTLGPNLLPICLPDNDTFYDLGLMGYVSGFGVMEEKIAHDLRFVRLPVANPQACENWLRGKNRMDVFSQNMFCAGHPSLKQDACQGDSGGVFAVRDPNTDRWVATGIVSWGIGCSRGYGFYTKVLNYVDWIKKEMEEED
# T2 sequence (P00736 18-463 partner limits assumed): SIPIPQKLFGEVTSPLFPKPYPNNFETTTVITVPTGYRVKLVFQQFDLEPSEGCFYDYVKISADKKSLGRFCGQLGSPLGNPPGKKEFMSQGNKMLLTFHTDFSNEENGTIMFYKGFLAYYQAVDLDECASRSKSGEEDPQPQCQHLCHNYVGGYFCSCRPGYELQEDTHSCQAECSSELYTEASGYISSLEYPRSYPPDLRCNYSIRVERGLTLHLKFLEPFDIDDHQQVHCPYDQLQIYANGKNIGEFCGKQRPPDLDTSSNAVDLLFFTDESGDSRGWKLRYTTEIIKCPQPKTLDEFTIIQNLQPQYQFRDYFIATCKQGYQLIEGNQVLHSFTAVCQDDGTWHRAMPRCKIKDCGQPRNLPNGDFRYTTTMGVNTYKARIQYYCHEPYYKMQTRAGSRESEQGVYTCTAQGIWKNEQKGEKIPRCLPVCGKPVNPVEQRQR
# Experimental: (§2) The anti-Cl esterase (Clr, Cls) activity was determined according to the method of Okamura et al. [K. Okamura, M. Muramatsu and S. Fujii, Biochem. Biophys. Acta, 295, 252-257 (1973)]. The inhibition of complement mediated hemolysis (percent) was determined according to the method of Baker et al. [B. R. Baker and E. H. Erickson, J. Med. Chem., 12, 408-414 (1969)]. The figures in Table 2 have the following meanings:
# Clr: Molar concentration of the test compound which inhibits 50% of the ability of Clr to hydrolyse AAME (acetylarginin methyl ester) (ID50).
# Cls = target: T3, Cls (Homo sapiens, UniProt P09871); assay: Anti-Cl esterase activity, Cls (ATEE hydrolysis, method of Okamura et al.); assay type: biochemical; details: read-out: Anti-C1 activity, Cls (ID50)
# T3 sequence (P09871 438-688 limits assumed): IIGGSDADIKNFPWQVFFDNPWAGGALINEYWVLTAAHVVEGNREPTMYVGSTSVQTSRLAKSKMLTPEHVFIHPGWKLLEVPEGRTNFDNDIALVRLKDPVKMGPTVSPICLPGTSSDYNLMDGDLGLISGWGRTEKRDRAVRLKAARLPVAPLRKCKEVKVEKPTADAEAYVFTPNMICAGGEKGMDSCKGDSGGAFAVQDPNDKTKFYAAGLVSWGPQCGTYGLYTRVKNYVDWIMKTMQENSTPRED
# T3 sequence (P09871 16-437 partner limits assumed): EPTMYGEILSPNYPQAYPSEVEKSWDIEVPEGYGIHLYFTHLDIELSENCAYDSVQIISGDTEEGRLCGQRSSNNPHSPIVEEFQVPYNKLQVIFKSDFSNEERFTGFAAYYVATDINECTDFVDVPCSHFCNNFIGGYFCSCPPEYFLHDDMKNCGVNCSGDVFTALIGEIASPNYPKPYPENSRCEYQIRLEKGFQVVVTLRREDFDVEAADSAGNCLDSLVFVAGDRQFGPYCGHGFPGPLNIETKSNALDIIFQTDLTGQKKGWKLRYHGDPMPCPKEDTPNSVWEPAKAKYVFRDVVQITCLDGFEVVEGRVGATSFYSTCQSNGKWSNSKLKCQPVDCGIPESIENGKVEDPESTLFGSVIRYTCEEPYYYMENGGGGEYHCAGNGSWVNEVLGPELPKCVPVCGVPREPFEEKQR
# Experimental: as §2
# Cls: Molar concentration of the test compound which inhibits 50% of the ability of Cls to hydrolyse ATEE (acetyltyrosin ethyl ester) (ID50).
# [1] = tested on: complement mediated hemolysis; assay: Inhibition of complement mediated hemolysis (method of Baker et al.); assay type: cell-based
# Forssman shock = assay: Forssman shock, time elapsed until death; assay type: in vivo, guinea pig; details: 5 minutes before hemolysin
# Experimental: The experiment was performed according to the method of I. G. Offerness et al. [Biochem. Pharmacol., 27 (14), 1873-1878 (1978)]. Male Hartlay guinea pig of about 300 g in body weight was used. Each guinea pig of the control group was administered intravenously with 0.5 ml (minimum dose to cause the shock) of hemolysin (commercial hemolysin, 5,000 U as assayed by the method of Ogata) and the time elapsed until death was observed. For the test group, each guinea pig was administered intravenously with the test compound 5 minutes before the administration of hemolysin and the time (second) elapsed until death was observed.
# [2] = Toxicity, lethal dose (LD50); details: mouse, in vivo
smiles,measurement,setting,value
"N=C(N)c1ccc2cc(OC(=O)[C@H]3CC[C@H](CN)CC3)ccc2c1 [Compound No. 20, 6-amidino-2-naphthyl trans-4-aminomethylcyclohexanecarboxylate]",inhibition at 10 µM,trypsin,28%
same,IC50,plasmin,> 10 µM
same,"percentage inhibition, kallikrein (figure in parentheses)",kallikrein,38%
same,IC50,thrombin,> 10 µM
same,IC50,Clr,5 µM
same,IC50,Cls,4 µM
same,Inhibition of complement mediated hemolysis (%),[1]; concentration 1 × 10^-4,100%
same,Inhibition of complement mediated hemolysis (%),[1]; concentration 1 × 10^-5,99%
same,Inhibition of complement mediated hemolysis (%),[1]; concentration 1 × 10^-6,80%
same,Inhibition of complement mediated hemolysis (%),[1]; concentration 1 × 10^-7,12%
same,"time elapsed until death, Average","Forssman shock; 1.0 mg/kg intravenously, average of 6, control average 428",442 s
same,time elapsed until death,"Forssman shock; 1.0 mg/kg intravenously, individual animals 1-6",360 s and 365 s and 325 s and 620 s and 650 s
same,time elapsed until death / survival,"Forssman shock; 3.0 mg/kg intravenously, individual animals 1-6, ditto mark = Survival",Survival
same,LD50,"[2]; ip, read-out: LD50 Mouse IP",175 mg/kg
same,LD50,"[2]; po, read-out: LD50 Mouse PO",2000 mg/kg
